Counter-ions that a name gives are not always drawn.
Key:
PI3Kα = PI3Kα (Homo sapiens, UniProt P42336); test: PI3K-alpha fluorescence polarization assay; format: biochemical; settings: read-out: PI3Kα Median IC50
PI3Kγ = PI3Kγ (Homo sapiens, UniProt P48736); test: PI3K-gamma fluorescence polarization assay; format: biochemical; settings: read-out: PI3Kγ Median IC50
mTOR = mTOR (Homo sapiens, UniProt P42345); test: mTOR enzyme assay (DELFIA format, His6-S6K substrate); format: biochemical; settings: read-out: mTOR Kinase Median IC50

PI3Kγ, sequence (P48736 whole entry, species assumed): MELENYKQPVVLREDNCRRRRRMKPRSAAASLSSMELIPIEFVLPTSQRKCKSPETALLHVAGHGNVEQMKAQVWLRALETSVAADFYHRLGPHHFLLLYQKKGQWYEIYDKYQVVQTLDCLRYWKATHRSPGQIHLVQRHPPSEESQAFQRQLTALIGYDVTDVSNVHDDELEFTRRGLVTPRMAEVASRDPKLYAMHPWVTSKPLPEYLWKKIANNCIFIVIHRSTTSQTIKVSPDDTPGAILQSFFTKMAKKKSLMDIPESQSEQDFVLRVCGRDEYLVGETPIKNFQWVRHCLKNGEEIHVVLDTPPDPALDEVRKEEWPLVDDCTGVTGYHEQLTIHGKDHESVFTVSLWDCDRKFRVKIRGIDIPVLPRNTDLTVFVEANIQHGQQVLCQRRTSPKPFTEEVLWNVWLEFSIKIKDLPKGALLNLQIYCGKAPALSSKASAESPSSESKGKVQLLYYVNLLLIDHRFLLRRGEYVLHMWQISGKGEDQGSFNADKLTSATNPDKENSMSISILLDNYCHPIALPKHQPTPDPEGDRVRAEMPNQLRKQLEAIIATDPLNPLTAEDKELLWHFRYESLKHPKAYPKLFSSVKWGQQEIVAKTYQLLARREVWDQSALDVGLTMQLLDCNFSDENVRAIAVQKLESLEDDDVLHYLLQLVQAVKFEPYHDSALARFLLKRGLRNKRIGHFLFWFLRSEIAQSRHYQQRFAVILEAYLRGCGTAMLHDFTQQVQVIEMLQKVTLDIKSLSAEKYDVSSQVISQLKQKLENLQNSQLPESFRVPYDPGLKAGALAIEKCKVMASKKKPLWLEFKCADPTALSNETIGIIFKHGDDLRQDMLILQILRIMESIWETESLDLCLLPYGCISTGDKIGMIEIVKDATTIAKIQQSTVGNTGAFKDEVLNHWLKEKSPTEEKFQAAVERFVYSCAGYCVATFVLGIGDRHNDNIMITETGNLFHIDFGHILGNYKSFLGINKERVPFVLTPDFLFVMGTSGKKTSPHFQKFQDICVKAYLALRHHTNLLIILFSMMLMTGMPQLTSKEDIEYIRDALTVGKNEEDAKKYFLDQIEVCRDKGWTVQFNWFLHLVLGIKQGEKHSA
PI3Kα, sequence (P42336 whole entry, species assumed): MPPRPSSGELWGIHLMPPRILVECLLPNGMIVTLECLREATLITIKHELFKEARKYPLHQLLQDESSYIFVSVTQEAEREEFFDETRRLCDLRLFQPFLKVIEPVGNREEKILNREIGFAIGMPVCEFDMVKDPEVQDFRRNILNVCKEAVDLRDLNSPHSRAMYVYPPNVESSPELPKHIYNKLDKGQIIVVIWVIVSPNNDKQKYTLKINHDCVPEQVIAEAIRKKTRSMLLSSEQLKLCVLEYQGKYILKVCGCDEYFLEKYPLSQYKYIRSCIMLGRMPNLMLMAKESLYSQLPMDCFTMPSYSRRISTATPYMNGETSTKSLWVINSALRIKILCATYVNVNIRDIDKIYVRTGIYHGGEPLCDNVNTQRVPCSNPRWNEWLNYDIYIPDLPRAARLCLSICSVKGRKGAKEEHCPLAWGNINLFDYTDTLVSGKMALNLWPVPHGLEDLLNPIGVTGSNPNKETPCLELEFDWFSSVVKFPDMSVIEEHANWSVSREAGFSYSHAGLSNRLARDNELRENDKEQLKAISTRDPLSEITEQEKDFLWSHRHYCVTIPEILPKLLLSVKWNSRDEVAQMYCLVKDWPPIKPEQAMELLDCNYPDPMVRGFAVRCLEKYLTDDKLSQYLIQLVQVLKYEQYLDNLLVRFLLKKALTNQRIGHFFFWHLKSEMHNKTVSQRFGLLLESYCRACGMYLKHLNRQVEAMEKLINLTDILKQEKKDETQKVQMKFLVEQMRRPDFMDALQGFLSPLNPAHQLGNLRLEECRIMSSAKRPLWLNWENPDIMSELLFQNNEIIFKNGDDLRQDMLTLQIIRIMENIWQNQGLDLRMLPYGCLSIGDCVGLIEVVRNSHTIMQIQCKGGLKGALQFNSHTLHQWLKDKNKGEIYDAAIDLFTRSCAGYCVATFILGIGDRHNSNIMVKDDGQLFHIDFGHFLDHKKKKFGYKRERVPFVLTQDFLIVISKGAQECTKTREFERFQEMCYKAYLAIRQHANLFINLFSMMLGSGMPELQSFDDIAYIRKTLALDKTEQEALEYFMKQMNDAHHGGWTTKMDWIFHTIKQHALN
PI3Kα, sequence (P27986 whole entry partner, species assumed): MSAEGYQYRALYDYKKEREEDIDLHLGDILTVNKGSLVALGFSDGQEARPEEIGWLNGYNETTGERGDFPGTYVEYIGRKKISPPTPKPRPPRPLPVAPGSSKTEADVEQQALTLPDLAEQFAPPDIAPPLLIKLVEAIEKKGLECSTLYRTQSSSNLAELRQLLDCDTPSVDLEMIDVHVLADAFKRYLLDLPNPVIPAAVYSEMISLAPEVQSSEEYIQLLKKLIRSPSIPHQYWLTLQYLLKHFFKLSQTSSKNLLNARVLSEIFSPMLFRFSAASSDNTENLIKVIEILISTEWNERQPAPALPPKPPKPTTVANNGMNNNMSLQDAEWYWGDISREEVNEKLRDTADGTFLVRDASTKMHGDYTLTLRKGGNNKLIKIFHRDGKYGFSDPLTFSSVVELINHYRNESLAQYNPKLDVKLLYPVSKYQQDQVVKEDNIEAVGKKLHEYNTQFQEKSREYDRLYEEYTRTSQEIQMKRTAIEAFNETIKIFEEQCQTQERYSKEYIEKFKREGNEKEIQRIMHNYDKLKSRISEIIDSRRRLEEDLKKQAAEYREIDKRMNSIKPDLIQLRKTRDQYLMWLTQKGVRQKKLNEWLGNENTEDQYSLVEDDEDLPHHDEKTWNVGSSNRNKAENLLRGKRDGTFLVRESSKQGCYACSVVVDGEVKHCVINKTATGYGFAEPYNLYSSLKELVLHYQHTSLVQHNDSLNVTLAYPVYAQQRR

melting point	IC50 (PI3Kα)	IC50 (PI3Kγ)	IC50 (mTOR)	Molecule
162 to 167 °C	–	–	–	CCOC(=O)Nc1ccc2c(c1)C(=O)/C(=C/c1cn(C)c3nccc(N4CCC(C(=O)N(C)C)CC4)c13)O2 (as salt: Na) [Compound 171, ethyl[(2Z)-2-({4-[4-(dimethylcarbamoyl)piperidin-1-yl]-1-methyl-1H-pyrrolo[2,3-b]pyridin-3-yl}methylidene)-3-oxo-2,3-dihydro-1-benzofuran-5-yl]carbamate]
236 to 240 °C	5.64 µM	> 10 µM	–	CN(C)C(=O)C1CCN(c2ccnc3c2c(/C=C2\Oc4ccc(NC(=O)C(F)(F)F)cc4C2=O)cn3C)CC1 [Compound 163, N,N-dimethyl-1-{1-methyl-3-[(Z)-{3-oxo-5-[(trifluoroacetyl)amino]-1-benzofuran-2(3H)-ylidene}methyl]-1H-pyrrolo[2,3-b]pyridin-4-yl}piperidine-4-carboxamide]
–	0.503 µM	0.638 µM	0.039 µM	CN(C)C(=O)C1CCN(c2ccnc3c2c(/C=C2\Oc4ccc(NC(=O)Nc5ccc(OC6CCOCC6)nc5)cc4C2=O)cn3C)CC1 [Compound 267, N,N-dimethyl-1-(1-methyl-3-{(Z)-[3-oxo-5-({[6-(tetrahydro-2H-pyran-4-yloxy)pyridin-3-yl]carbamoyl}amino)-1-benzofuran-2(3H)-ylidene]methyl}-1H-pyrrolo[2,3-b]pyridin-4-yl)piperidine-4-carboxamide]
–	0.068 µM	0.314 µM	0.0084 µM	CN(C)C(=O)C1CCN(c2ccnc3c2c(/C=C2\Oc4ccc(NC(=O)NC5CNC5)cc4C2=O)cn3C)CC1 [Compound 287, 1-{3-[(Z)-{5-[(azetidin-3-ylcarbamoyl)amino]-3-oxo-1-benzofuran-2(3H)-ylidene}methyl]-1-methyl-1H-pyrrolo[2,3-b]pyridin-4-yl}-N,N-dimethylpiperidine-4-carboxamide]
–	1.49 µM	3.78 µM	0.073 µM	CC(C)NC(=O)Nc1ccc2c(c1)C(=O)/C(=C/c1cn(C)c3nccc(N4CCC(C(=O)N(C)C)CC4)c13)O2 [Compound 288, N,N-dimethyl-1-(1-methyl-3-{(Z)-[5-{[(1-methylethyl)carbamoyl]amino}-3-oxo-1-benzofuran-2(3H)-ylidene]methyl}-1H-pyrrolo[2,3-b]pyridin-4-yl)piperidine-4-carboxamide]
–	1.25 µM	> 10 µM	0.15 µM	CN(C)C(=O)C1CCN(c2ccnc3c2c(/C=C2\Oc4ccc(NC(=O)Nc5nc6ccccc6n5C)cc4C2=O)cn3C)CC1 [Compound 290, N,N-dimethyl-1-(1-methyl-3-{(Z)-[5-{[(1-methyl-1H-benzimidazol-2-yl)carbamoyl]amino}-3-oxo-1-benzofuran-2(3H)-ylidene]methyl}-1H-pyrrolo[2,3-b]pyridin-4-yl)piperidine-4-carboxamide]
–	2.55 µM	4.68 µM	0.059 µM	CN(C)C(=O)C1CCN(c2ccnc3c2c(/C=C2\Oc4ccc(NC(=O)NC5CC5)cc4C2=O)cn3C)CC1 [Compound 291, 1-{3-[(Z)-{5-[(cyclopropylcarbamoyl)amino]-3-oxo-1-benzofuran-2(3H)-ylidene}methyl]-1-methyl-1H-pyrrolo[2,3-b]pyridin-4-yl}-N,N-dimethylpiperidine-4-carboxamide]
–	0.736 µM	3.54 µM	0.105 µM	CN(C)C(=O)C1CCN(c2ccnc3c2c(/C=C2\Oc4ccc(NC(=O)NC5CCN(C(=O)C(F)(F)F)CC5)cc4C2=O)cn3C)CC1 [Compound 300, N,N-dimethyl-1-(1-methyl-3-{(Z)-[3-oxo-5-({[1-(trifluoroacetyl)piperidin-4-yl]carbamoyl}amino)-1-benzofuran-2(3H)-ylidene]methyl}-1H-pyrrolo[2,3-b]pyridin-4-yl)piperidine-4-carboxamide]

The next lines start with the molecule.

Molecule	melting point	IC50 (PI3Kα)	IC50 (PI3Kγ)	IC50 (mTOR)
CC1CN(C(=O)C2CCN(c3ccnc4c3c(/C=C3\Oc5ccc(NC(=O)Nc6cccnc6)cc5C3=O)cn4C)CC2)CC(C)O1 (stereo not shown) [Compound 265, 1-{(2Z)-2-[(4-{4-[(2,6-dimethylmorpholin-4-yl)carbonyl]piperidin-1-yl}-1-methyl-1H-pyrrolo[2,3-b]pyridin-3-yl)methylene]-3-oxo-2,3-dihydro-1-benzofuran-5-yl}-3-pyridin-3-ylurea]	–	3.75 µM	1.19 µM	0.0405 µM
CN(C)CCN(C)C(=O)C1CCN(c2ccnc3c2c(/C=C2\Oc4ccc(NC(=O)Nc5cccnc5)cc4C2=O)cn3C)CC1 [Compound 266, N-[2-(dimethylamino)ethyl]-N-methyl-1-{1-methyl-3-[(Z)-{3-oxo-5-[(pyridin-3-ylcarbamoyl)amino]-1-benzofuran-2(3H)-ylidene}methyl]-1H-pyrrolo[2,3-b]pyridin-4-yl}piperidine-4-carboxamide]	–	> 10 µM	1.2 µM	0.0425 µM
CN(C)C(=O)C1CCN(c2ccnc3c2c(/C=C2\Oc4ccc(NC(=O)Nc5ccc(N6CCOCC6)cc5)cc4C2=O)cn3C)CC1 [Compound 268, N,N-dimethyl-1-(1-methyl-3-{(Z)-[5-{[(4-morpholin-4-ylphenyl)carbamoyl]amino}-3-oxo-1-benzofuran-2(3H)-ylidene]methyl}-1H-pyrrolo[2,3-b]pyridin-4-yl)piperidine-4-carboxamide]	–	2.59 µM	6.09 µM	0.215 µM
Cn1cc(/C=C2\Oc3ccc(NC(=O)Nc4ccc(N5CCOCC5)cc4)cc3C2=O)c2c(N3CC4CCC(C3)O4)ccnc21 [Compound 273, 1-[(2Z)-2-{[1-methyl-4-(8-oxa-3-azabicyclo[3.2.1]oct-3-yl)-1H-pyrrolo[2,3-b]pyridin-3-yl]methylidene}-3-oxo-2,3-dihydro-1-benzofuran-5-yl]-3-(4-morpholin-4-ylphenyl)urea]	–	5.7 µM	> 10 µM	3.35 µM
CN(C)CCOc1ccc(NC(=O)Nc2ccc3c(c2)C(=O)/C(=C/c2cn(C)c4nccc(N5CCC(C(=O)N(C)C)CC5)c24)O3)cc1 [Compound 274, 1-{3-[(Z)-{5-[({4-[2-(dimethylamino)ethoxy]phenyl}carbamoyl)amino]-3-oxo-1-benzofuran-2(3H)-ylidene}methyl]-1-methyl-1H-pyrrolo[2,3-b]pyridin-4-yl}-N,N-dimethylpiperidine-4-carboxamide]	–	0.778 µM	0.934 µM	0.021 µM
COC1CCN(C(=O)C2CCN(c3ccnc4c3c(/C=C3\Oc5ccc(NC(=O)Nc6cccnc6)cc5C3=O)cn4C)CC2)C1 (stereo not shown) [Compound 275, 1-{(2Z)-2-[(4-{4-[(3-methoxypyrrolidin-1-yl)carbonyl]piperidin-1-yl}-1-methyl-1H-pyrrolo[2,3-b]pyridin-3-yl)methylidene]-3-oxo-2,3-dihydro-1-benzofuran-5-yl}-3-pyridin-3-ylurea]	–	1.61 µM	1.33 µM	0.013 µM
Cn1cc(/C=C2\Oc3ccc(NC(=O)Nc4ccc(CN5CCCCC5)cc4)cc3C2=O)c2c(N3CC4CCC(C3)O4)ccnc21 [Compound 278, 1-[(2Z)-2-{[1-methyl-4-(8-oxa-3-azabicyclo[3.2.1]oct-3-yl)-1H-pyrrolo[2,3-b]pyridin-3-yl]methylidene}-3-oxo-2,3-dihydro-1-benzofuran-5-yl]-3-[4-(piperidin-1-ylmethyl)phenyl]urea]	–	0.743 µM	0.45 µM	0.023 µM
Cn1cc(/C=C2\Oc3ccc(NC(=O)NC4CNC4)cc3C2=O)c2c(N3CC4CCC(C3)O4)ccnc21 [Compound 285, 1-azetidin-3-yl-3-[(2Z)-2-{[1-methyl-4-(8-oxa-3-azabicyclo[3.2.1]oct-3-yl)-1H-pyrrolo[2,3-b]pyridin-3-yl]methylidene}-3-oxo-2,3-dihydro-1-benzofuran-5-yl]urea]	–	0.049 µM	0.532 µM	0.0114 µM
Cn1cc(/C=C2\Oc3ccc(NC(=O)NC4CCN(C(=O)C(F)(F)F)CC4)cc3C2=O)c2c(N3CC4CCC(C3)O4)ccnc21 [Compound 286, 1-[(2Z)-2-{[1-methyl-4-(8-oxa-3-azabicyclo[3.2.1]oct-3-yl)-1H-pyrrolo[2,3-b]pyridin-3-yl]methylidene}-3-oxo-2,3-dihydro-1-benzofuran-5-yl]-3-[1-(trifluoroacetyl)piperidin-4-yl]urea]	–	0.354 µM	1.72 µM	0.108 µM
Cn1cc(/C=C2\Oc3ccc(NC(=O)Nc4nc5ccccc5n4C)cc3C2=O)c2c(N3CC4CCC(C3)O4)ccnc21 [Compound 289, 1-(1-methyl-1H-benzimidazol-2-yl)-3-[(2Z)-2-{[1-methyl-4-(8-oxa-3-azabicyclo[3.2.1]oct-3-yl)-1H-pyrrolo[2,3-b]pyridin-3-yl]methylidene}-3-oxo-2,3-dihydro-1-benzofuran-5-yl]urea]	–	5.71 µM	> 10 µM	0.205 µM
Cn1cc(/C=C2\Oc3ccc(NC(=O)Nc4cccnc4)cc3C2=O)c2c(C3=CCOCC3)ccnc21 [Compound 294, 1-[(2Z)-2-{[4-(3,6-dihydro-2H-pyran-4-yl)-1-methyl-1H-pyrrolo[2,3-b]pyridin-3-yl]methylidene}-3-oxo-2,3-dihydro-1-benzofuran-5-yl]-3-pyridin-3-ylurea]	–	2.08 µM	> 10 µM	0.0275 µM
Cn1cc(/C=C2\Oc3ccc(NC(=O)Nc4ccc(F)nc4)cc3C2=O)c2c(N3CC4CCC(C3)O4)ccnc21 [Compound 298, 1-(6-fluoropyridin-3-yl)-3-[(2Z)-2-{[1-methyl-4-(8-oxa-3-azabicyclo[3.2.1]oct-3-yl)-1H-pyrrolo[2,3-b]pyridin-3-yl]methylidene}-3-oxo-2,3-dihydro-1-benzofuran-5-yl]urea]	–	0.274 µM	2.12 µM	0.026 µM
(2Z)-2-({4-[4-(5,6-dihydro-4H-1,3-oxazin-2-yl)phenyl]-1-methyl-1H-pyrrolo[2,3- b]pyridin-3-yl}methylidene)-4-hydroxy-1-benzofuran-3(2H)-one [Compound 22]	–	0.109 µM	0.276 µM	0.0046 µM
(2Z)-4-hydroxy-2-{[1-methyl-4-(1H-pyrrol-2-yl)-1H-pyrrolo[2,3-b]pyridin-3-yl]methylidene}-1-benzofuran-3(2H)-one [Compound 23]	–	0.381 µM	2.09 µM	0.0505 µM

From US20090298820A1, “3-SUBSTITUTED-1H-PYRROLO[2,3-B]PYRIDINE AND 3-SUBSTITUTED-1H-PYRROLO[3,2-B]PYRIDINE COMPOUNDS, THEIR USE AS MTOR KINASE AND PI3 KINASE INHIBITORS, AND THEIR SYNTHESES” (Wyeth, priority 2008, published 2009)
